Data from the supplement of paper PMC8671470.

Experiments:
Conditions in all cases: 72 h
BV-173 [1] = system: BV-173
How it was run: (§1)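 Fifteen myeloid leukaemia lines in RPMI 1640 were treated for 72 h at 37 °C and 5% CO2 with five tenfold doses from 1 to 10,000 nM, in duplicate. ATP luminescence was normalised to vehicle and to a positive control at 10 µM, then fitted with a four-parameter log-logistic model. The IC50 came from these fits.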

HEL [2] = system: HEL
How it was run: as §1

HL-60 [3] = system: HL-60
How it was run: as §1

K-562 [4] = system: K-562
How it was run: as §1

KCL-22 [5] = system: KCL-22
How it was run: as §1

KG-1 [6] = system: KG-1
How it was run: as §1

KU-812 [7] = system: KU-812
How it was run: as §1

LAMA-84 [8] = system: LAMA-84
How it was run: as §1

ML-2 [9] = system: ML-2
How it was run: as §1

MOLM-13 [10] = system: MOLM-13
How it was run: as §1

MV4-11 [11] = system: MV4-11
How it was run: as §1

Mono-Mac-6 [12] = system: Mono-Mac-6
How it was run: as §1

NOMO-1 [13] = system: NOMO-1
How it was run: as §1

SHI-1 [14] = system: SHI-1
How it was run: as §1

THP-1 [15] = system: THP-1
How it was run: as §1

BV-173 [16] = experiment: cell viability (% survival relative to DMSO control, bortezomib = 0%); higher = less cytotoxic
How it was run: (§2)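 Reported values are percent survival from duplicate wells, averaged. Fifteen myeloid leukaemia cell lines were treated in 384-well plates with compounds at 1, 10, 100, 1000 or 10000 nM for 72 h at 37 °C in 5% CO2. Signals from CellTiter-Glo luminescence were scaled with vehicle as 100% and a 10 µM positive control as 0%.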

HEL [17] = experiment: as above
How it was run: as §2

HL-60 [18] = experiment: as above
How it was run: as §2

K-562 [19] = experiment: as above
How it was run: as §2

KCL-22 [20] = experiment: as above
How it was run: as §2

KG-1 [21] = experiment: as above
How it was run: as §2

KU-812 [22] = experiment: as above
How it was run: as §2

LAMA-84 [23] = experiment: as above
How it was run: as §2

ML-2 [24] = experiment: as above
How it was run: as §2

MOLM-13 [25] = experiment: as above
How it was run: as §2

MV4-11 [26] = experiment: as above
How it was run: as §2

Mono-Mac-6 [27] = experiment: as above
How it was run: as §2

NOMO-1 [28] = experiment: as above
How it was run: as §2

SHI-1 [29] = experiment: as above
How it was run: as §2

THP-1 [30] = experiment: as above
How it was run: as §2

O=C1N[C@@H]2[C@@H](O)[C@@H](O)[C@H](O)[C@@H](CO)N2C1=O [Kifunensine]
Conditions | IC50 (cell viability) [µM]
BV-173 [1] | > 10
HEL [2] | > 10
HL-60 [3] | > 10
K-562 [4] | > 10
KCL-22 [5] | > 10
KG-1 [6] | > 10
KU-812 [7] | > 10
LAMA-84 [8] | > 10
ML-2 [9] | > 10
MOLM-13 [10] | > 10
MV4-11 [11] | > 10
Mono-Mac-6 [12] | > 10
NOMO-1 [13] | > 10
SHI-1 [14] | > 10
THP-1 [15] | > 10

cell viability [%]
Conditions | 1 nM | 10 nM | 100 nM | 1000 nM | 10000 nM
BV-173 [16] | 95 | 106 | 114 | 86.7 | 90.5
HEL [17] | 99.6 | 105 | 125 | 87.8 | 109
HL-60 [18] | 102 | 90.6 | 120 | 120 | 144
K-562 [19] | 93.2 | 102 | 99.3 | 87.6 | 107
KCL-22 [20] | 107 | 104 | 102 | 89 | 101
KG-1 [21] | 96.1 | 93.2 | 112 | 88.6 | 85.6
KU-812 [22] | 92.5 | 98.4 | 106 | 83.4 | 96.2
LAMA-84 [23] | 103 | 98.6 | 114 | 84.4 | 107
ML-2 [24] | 96.5 | 95.4 | 116 | 95.7 | 90.9
MOLM-13 [25] | 76.3 | 105 | 117 | 81.3 | 130
MV4-11 [26] | 96.4 | 96.3 | 103 | 82.9 | 72.1
Mono-Mac-6 [27] | 91.8 | 102 | 107 | 88.7 | 92.4
NOMO-1 [28] | 103 | 102 | 110 | 88.7 | 100
SHI-1 [29] | 96.9 | 99.9 | 105 | 107 | 136
THP-1 [30] | 98.6 | 95.2 | 97.7 | 89 | 104
